# Measured values published in patent US9149475B2, “Protein kinase C inhibitors and uses thereof” (Rigel Pharmaceuticals, Inc., priority 2009, dated 2015).
# Tested on: Human primary T cells
# Assay: IL-2 ELISA, human primary T cell, anti-CD3+CD28+ (whole cell assay)
# Type: cell-based
# Conditions: Homo sapiens, T-cell, 24 h, human primary T cells stimulated with anti-CD3 + anti-CD28, 24 hours
# Procedure: (§1) Human primary T cells were prepared as follows. Whole blood was obtained from a healthy volunteer, mixed 1:1 with PBS, layered on to Ficoll Hypaque (Amersham Pharmacia Biotech, Piscataway, N.J., Catalog #17-1440-03) in 2:1 blood/PBS:ficoll ratio and centrifuged for 30 minutes at 4° C. at 1750 rpm. The cells at the serum:ficoll interface were recovered and washed twice with 5 volumes of PBS. These freshly isolated human peripheral blood mononuclear cells were cultured in Yssel's medium containing 40 U/mL IL2 in a flask pre-coated with 1 μg/mL αCD3 and 5 μg/mL αCD28 (Anti-Human CD3, BD Pharmingen Catalog #555336, Anti-Human CD28, Beckman Coulter Catalog #IM1376). The cells were stimulated for 3-4 days, then transferred to a fresh flask and maintained in RPMI (RPMI-1640 with L-Glutamine; Mediatech, Inc., Herndon Va., cat. #10-040-CM) with 10% FBS and 40 U/mL IL-2. The primary T-cells were then washed twice with PBS to remove the IL-2.
# Human primary T cells (100,000 cells per well) were pre-incubated with or without test compound in Yssel's medium for 1 hr at 37° C. Cells were then stimulated by transferring them to round-bottom 96-well plates pre-coated with 1 μg/ml μCD3 and 5 μg/ml μCD28. For counter assay, cells were instead stimulated by adding 8× stock solutions of PMA and ionomycin in Yssels (for final concentrations of 0.5 ng/ml PMA and 0.1 μM ionomycin, both from Calbiochem). Cells were incubated at 37° C. for 24 hours before 100 μL supernatants were harvested for quantification of IL-2 by ELISA using Human IL-2 Duoset ELISA Kit from R and D Systems, Cat. #DY202E.
# as §1, with “Human primary T cell isolation and culture: Human primary” for “Human primary”, “for 30 min at 4°” for “for 30 minutes at 4°”, “at the serum: ficoll interface were” for “at the serum:ficoll interface were”
# Primary T cell stimulation and IL2 ELISA: Human primary T cells (100,000 cells per well) were pre-incubated with or without test compound in Yssel's medium for 1 hr at 37° C. Cells were then stimulated by transferring them to round-bottom 96-well plates pre-coated with 1 μg/ml αCD3 and 5 μg/ml αCD28. For counter assay, cells were instead stimulated by adding 8× stock solutions of PMA and ionomycin in Yssels (for final concentrations of 0.5 ng/ml PMA and 0.1 μM ionomycin, both from Calbiochem). Cells were incubated at 37° C. for 24 hours before 100 μL supernatants were harvested for quantification of IL-2 by ELISA using Human IL-2 Duoset ELISA Kit from R and D Systems, Cat. #DY202E.
row,IC50,Structure (SMILES)
1,> 1000 nM,"Cc1ccn(-c2cccc(Nc3ncc(F)c(NC4CC(C)(C)N(C)C(C)(C)C4)n3)c2)n1 [Compound I-1, 5-fluoro-N2-(3-(3-methyl-1H-pyrazol-1-yl)phenyl)-N4-(1,2,2,6,6-pentamethylpiperidin-4-yl)pyrimidine-2,4-diamine]"
2,> 1000 nM,"CN1C(C)(C)CC(Nc2nc(Nc3cccc(-n4ccc(C(F)(F)F)n4)c3)ncc2F)CC1(C)C [Compound I-2, 5-fluoro-N2-(3-(3-(trifluoromethyl)-1H-pyrazol-1-yl)phenyl)-N4-(1,2,2,6,6-pentamethylpiperidin-4-yl)pyrimidine-2,4-diamine]"
3,> 1000 nM,"CC1(C)CC(Nc2nc(Nc3cccc(-n4ccc(C(F)(F)F)n4)c3)ncc2F)CC(C)(C)N1 [Compound I-3, 5-fluoro-N2-(3-(3-(trifluoromethyl)-1H-pyrazol-1-yl)phenyl)-N4-(2,2,6,6-tetramethylpiperidin-4-yl)pyrimidine-2,4-diamine]"
4,250 to 500 nM,"Cc1ccc(C)n1-c1cc(Nc2ncc(F)c(NC3CC(C)(C)N(C)C(C)(C)C3)n2)ccc1OC(F)F [Compound I-4, N2-(4-(difluoromethoxy)-3-(2,5-dimethyl-1H-pyrrol-1-yl)phenyl)-5-fluoro-N4-(1,2,2,6,6-pentamethylpiperidin-4-yl)pyrimidine-2,4-diamine]"
5,500 to 1000 nM,"Cc1ccc(C)n1-c1cc(Nc2ncc(F)c(NC3CC(C)(C)NC(C)(C)C3)n2)ccc1OC(F)F [Compound I-5, N2-(4-(difluoromethoxy)-3-(2,5-dimethyl-1H-pyrrol-1-yl)phenyl)-5-fluoro-N4-(2,2,6,6-tetramethylpiperidin-4-yl)pyrimidine-2,4-diamine]"
6,500 to 1000 nM,"CN1C(C)(C)CC(Nc2nc(Nc3cc(F)cc(OCCn4ccnn4)c3)ncc2F)CC1(C)C [Compound I-6, N2-(3-(2-(1H-1,2,3-triazol-1-yl)ethoxy)-5-fluorophenyl)-5-fluoro-N4-(1,2,2,6,6-pentamethylpiperidin-4-yl)pyrimidine-2,4-diamine]"
7,> 1000 nM,"Cc1ccn(-c2cccc(Nc3ncc(F)c(NC4CC(C)(C)NC(C)(C)C4)n3)c2)n1 [Compound I-7, 5-fluoro-N2-(3-(3-methyl-1H-pyrazol-1-yl)phenyl)-N4-(2,2,6,6-tetramethylpiperidin-4-yl)pyrimidine-2,4-diamine]"
8,> 1000 nM,"CC1(C)CC(Nc2nc(Nc3cc(F)cc(OCCn4ccnn4)c3)ncc2F)CC(C)(C)N1 [Compound I-8, N2-(3-(2-(1H-1,2,3-triazol-1-yl)ethoxy)-5-fluorophenyl)-5-fluoro-N4-(2,2,6,6-tetramethylpiperidin-4-yl)pyrimidine-2,4-diamine]"
9,< 250 nM,"Cc1nnnn1-c1cc(Nc2ncc(F)c(NC3CC(C)(C)N(C)C(C)(C)C3)n2)ccc1F [Compound I-9, 5-fluoro-N2-(4-fluoro-3-(5-methyl-1H-tetrazol-1-yl)phenyl)-N4-(1,2,2,6,6-pentamethylpiperidin-4-yl)pyrimidine-2,4-diamine]"
10,250 to 500 nM,"Cc1nnnn1-c1cc(Nc2ncc(F)c(NC3CC(C)(C)NC(C)(C)C3)n2)ccc1F [Compound I-10, 5-fluoro-N2-(4-fluoro-3-(5-methyl-1H-tetrazol-1-yl)phenyl)-N4-(2,2,6,6-tetramethylpiperidin-4-yl)pyrimidine-2,4-diamine]"
11,> 1000 nM,"Cc1nnnn1-c1cc(Nc2ncc(F)c(NC3CC(C)(C)N(CC4CC4)C(C)(C)C3)n2)ccc1F [Compound I-11, N4-(1-(cyclopropylmethyl)-2,2,6,6-tetramethylpiperidin-4-yl)-5-fluoro-N2-(4-fluoro-3-(5-methyl-1H-tetrazol-1-yl)phenyl)pyrimidine-2,4-diamine]"
12,500 to 1000 nM,"CN1C(C)(C)CC(Nc2nc(Nc3cccc(-n4cncn4)c3)ncc2F)CC1(C)C [Compound I-12, N2-(3-(1H-1,2,4-triazol-1-yl)phenyl)-5-fluoro-N4-(1,2,2,6,6-pentamethylpiperidin-4-yl)pyrimidine-2,4-diamine]"
13,> 1000 nM,"CCOc1ccc(Nc2ncc(F)c(NC3CC(C)(C)N(C)C(C)(C)C3)n2)cc1-n1c(C)ccc1C [Compound I-13, N2-(4-ethoxy-3-(2,5-dimethyl-1H-pyrrol-1-yl)phenyl)-5-fluoro-N4-(1,2,2,6,6-pentamethylpiperidin-4-yl)pyrimidine-2,4-diamine]"
14,500 to 1000 nM,"CCOc1ccc(Nc2ncc(F)c(NC3CC(C)(C)NC(C)(C)C3)n2)cc1-n1c(C)ccc1C [Compound I-14, N2-(4-ethoxy-3-(2,5-dimethyl-1H-pyrrol-1-yl)phenyl)-5-fluoro-N4-(2,2,6,6-tetramethylpiperidin-4-yl)pyrimidine-2,4-diamine]"
15,500 to 1000 nM,"Cc1ccc(C)n1-c1cc(Nc2ncc(F)c(NC3CC(C)(C)N(C)C(C)(C)C3)n2)ccc1OC(C)C [Compound I-15, N2-(4-isopropyloxy-3-(2,5-dimethyl-1H-pyrrol-1-yl)phenyl)-5-fluoro-N4-(1,2,2,6,6-pentamethylpiperidin-4-yl)pyrimidine-2,4-diamine]"
16,> 1000 nM,"Cc1ccc(C)n1-c1cc(Nc2ncc(F)c(NC3CC(C)(C)NC(C)(C)C3)n2)ccc1OC(C)C [Compound I-16, N2-(4-isopropyloxy-3-(2,5-dimethyl-1H-pyrrol-1-yl)phenyl)-5-fluoro-N4-(2,2,6,6-tetramethylpiperidin-4-yl)pyrimidine-2,4-diamine]"
17,> 1000 nM,"CC1(C)CC(Nc2nc(Nc3cc(F)cc(OCCn4ccnn4)c3)ncc2C#N)CC(C)(C)N1 [Compound I-17, 4-(2,2,6,6-tetramethylpiperidin-4-ylamino)-2-(3-(2-(1H-1,2,3-triazol-1-yl)ethoxy)-5-fluorophenylamino)pyrimidine-5-carbonitrile]"
18,250 to 500 nM,"Cc1nnnn1-c1cc(Nc2ncc(C#N)c(NC3CC(C)(C)NC(C)(C)C3)n2)ccc1F [Compound I-18, 4-(2,2,6,6-tetramethylpiperidin-4-ylamino)-2-(4-fluoro-3-(5-methyl-1H-tetrazol-1-yl)phenylamino)pyrimidine-5-carbonitrile]"
19,500 to 1000 nM,"CC1(C)CC(Nc2nc(Nc3cccc(-n4cncn4)c3)ncc2F)CC(C)(C)N1 [Compound I-19, N2-(3-(1H-1,2,4-triazol-1-yl)phenyl)-5-fluoro-N4-(2,2,6,6-tetramethylpiperidin-4-yl)pyrimidine-2,4-diamine]"
20,< 250 nM,"Cc1nnnn1-c1cc(Nc2ncc(F)c(NC3CC(C)(C)N(C)C(C)(C)C3)n2)ccc1OC(F)(F)F [Compound I-20, 5-fluoro-N2-(3-(5-methyl-1H-tetrazol-1-yl)-4-(trifluoromethoxy)phenyl)-N4-(1,2,2,6,6-pentamethylpiperidin-4-yl)pyrimidine-2,4-diamine]"
21,< 250 nM,"Cc1nnnn1-c1cc(Nc2ncc(F)c(NC3CC(C)(C)NC(C)(C)C3)n2)ccc1OC(F)(F)F [Compound I-21, 5-fluoro-N2-(3-(5-methyl-1H-tetrazol-1-yl)-4-(trifluoromethoxy)phenyl)-N4-(2,2,6,6-tetramethylpiperidin-4-yl)pyrimidine-2,4-diamine]"
22,500 to 1000 nM,"CN1C(C)(C)CC(Nc2nc(Nc3cccc(-n4cccn4)c3)ncc2F)CC1(C)C [Compound I-22, N2-(3-(1H-pyrazol-1-yl)phenyl)-5-fluoro-N4-(1,2,2,6,6-pentamethylpiperidin-4-yl)pyrimidine-2,4-diamine]"
23,> 1000 nM,"CC1(C)CC(Nc2nc(Nc3cccc(-n4cccn4)c3)ncc2F)CC(C)(C)N1 [Compound I-23, N2-(3-(1H-pyrazol-1-yl)phenyl)-5-fluoro-N4-(2,2,6,6-tetramethylpiperidin-4-yl)pyrimidine-2,4-diamine]"
24,500 to 1000 nM,"CC1(C)CC(Nc2nc(Nc3ccc(OCCn4ccnn4)c(OC(F)F)c3)ncc2F)CC(C)(C)N1 [Compound I-24, N2-(4-(2-(1H-1,2,3-triazol-1-yl)ethoxy)-3-(difluoromethoxy)phenyl)-5-fluoro-N4-(2,2,6,6-tetramethylpiperidin-4-yl)pyrimidine-2,4-diamine]"
